From publication PMC5104480 (PLoS ONE, 2016)

Legend:
[1] = Glucuronidation kinetics of diosmetin and chrysoeriol by HLMs; type: in vitro ADME, human; conditions: human, liver microsomes, pH 7.4, Vmax/Km, formation of the named glucuronide
Protocol: (§1) All metabolism studies in vitro were approved by the First Hospital Affiliated to Shihezi University Research Ethics Committee. The glucuronidation assay was performed as described in previous publications. […] The incubation volumes were 120 μL, and the total organic solvent content was 1%. […] The reactions were initiated by adding UDPGA (3.5 mM) at 37°C and then allowed to stand for 30 min in a water bath. These reactions were terminated by adding 60 μL ice-cold acetonitrile containing the IS (25 nM tilianin). […] All experiments were performed in triplicate. The enzyme kinetic parameters were obtained by fitting kinetic models to the experimental data using GraphPad Prism version 5.04 for Windows (GraphPad Software Inc., San Diego, CA, USA). The best model was selected based on visual inspection of the Eadie-Hofstee plots, the calculated r^2 values, and corrected Akaike’s information criterion. The HLMs or human expressed UGT enzymes were employed for kinetic studies at concentrations ranging from 0.0021 mg/mL to 0.0053 mg/mL. The rates of the glucuronidation were fitted to the following equations: V = Cmetabolite/t×Cprotein Where V (nmol/mg/min) is the rates of the glucuronidation, Cmetabolite (μM) and Cprotein (mg/mL) respectively are the concentration of the metabolite and the reaction protein, t (min) is the reaction time. Model selection was based on visual inspection of Eadie—Hofstee plots and it was reported in our previous study. In brief, if the Eadie—Hofstee plot was linear, formation rates (V) of glucuronides at different substrate concentrations (C) were fitted to the standard Eq (1): V = Vmax×C/Km+C (1) where Km is the Michaelis-Menten constant and Vmax is the maximum rate of glucuronidation. The intrinsic clearance (CLint) was derived by Vmax/Km. […] The intrinsic clearance (CLint) was derived by Vmax1/Km1.

[2] = tested on: human liver microsomes (HLMs); assay: as above; type: in vitro ADME; conditions: for Kinetic profile of glucuronide formation: Eadie—Hofstee plots; for Km / Vmax: formation of the named glucuronide from diosmetin or chrysoeriol
Protocol: as §1

UGT1A6 = target: T1, UGT1A6 (Homo sapiens, UniProt P19224); assay: Glucuronidation by human expressed UGT1A6 (screening and kinetics); type: in vitro ADME
T1 construct: purchased BD Biosciences (Woburn, MA, USA)
T1 sequence (P19224 27-532): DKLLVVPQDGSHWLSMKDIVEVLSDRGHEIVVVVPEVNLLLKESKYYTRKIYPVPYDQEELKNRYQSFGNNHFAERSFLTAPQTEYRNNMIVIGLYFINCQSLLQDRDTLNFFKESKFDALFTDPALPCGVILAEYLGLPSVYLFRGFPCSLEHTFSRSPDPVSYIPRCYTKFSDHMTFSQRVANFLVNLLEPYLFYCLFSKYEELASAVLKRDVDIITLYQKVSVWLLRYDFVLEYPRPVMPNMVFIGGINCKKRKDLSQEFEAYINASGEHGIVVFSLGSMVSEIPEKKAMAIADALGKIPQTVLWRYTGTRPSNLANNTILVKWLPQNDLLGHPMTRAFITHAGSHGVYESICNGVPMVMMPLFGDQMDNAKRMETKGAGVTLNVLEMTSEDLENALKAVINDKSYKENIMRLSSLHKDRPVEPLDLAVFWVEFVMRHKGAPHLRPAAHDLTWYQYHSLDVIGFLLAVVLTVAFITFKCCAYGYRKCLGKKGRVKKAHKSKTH
Protocol: as §1, with “Vmax1/Km1. The method of this study as described in detail previously. […] After incubation, all samples were pretreated as described above and analyzed by UHPLC—MS/MS.” for “Vmax1/Km1.”

HeLa—UGT1A9 cells = assay: Glucuronide excretion at different substrate concentrations in HeLa—UGT1A9 cells; type: cell-based; conditions: for substrate concentration at which the excretion rate reached a peak: diosmetin or chrysoeriol 1.25-40 μM
Protocol: (§2) The excretion rates, glucuronides intracellular, Glucuronides excretion, the clearance of efflux transporter (CL) and the fraction of the metabolized dose (fmet) experiments were calculated as described in detail previously.

BCRP = target: T2, BCRP (Homo sapiens, UniProt Q9UNQ0); assay: Effect of BCRP inhibitor Ko143 on glucuronide excretion in HeLa—UGT1A9 cells; type: cell-based
T2 construct: endogenous in cells; host or cells: HeLa cells stably transfected with UGT1A9 (from Dr. Ming Hu, University of Houston)
T2 sequence (Q9UNQ0 1-655): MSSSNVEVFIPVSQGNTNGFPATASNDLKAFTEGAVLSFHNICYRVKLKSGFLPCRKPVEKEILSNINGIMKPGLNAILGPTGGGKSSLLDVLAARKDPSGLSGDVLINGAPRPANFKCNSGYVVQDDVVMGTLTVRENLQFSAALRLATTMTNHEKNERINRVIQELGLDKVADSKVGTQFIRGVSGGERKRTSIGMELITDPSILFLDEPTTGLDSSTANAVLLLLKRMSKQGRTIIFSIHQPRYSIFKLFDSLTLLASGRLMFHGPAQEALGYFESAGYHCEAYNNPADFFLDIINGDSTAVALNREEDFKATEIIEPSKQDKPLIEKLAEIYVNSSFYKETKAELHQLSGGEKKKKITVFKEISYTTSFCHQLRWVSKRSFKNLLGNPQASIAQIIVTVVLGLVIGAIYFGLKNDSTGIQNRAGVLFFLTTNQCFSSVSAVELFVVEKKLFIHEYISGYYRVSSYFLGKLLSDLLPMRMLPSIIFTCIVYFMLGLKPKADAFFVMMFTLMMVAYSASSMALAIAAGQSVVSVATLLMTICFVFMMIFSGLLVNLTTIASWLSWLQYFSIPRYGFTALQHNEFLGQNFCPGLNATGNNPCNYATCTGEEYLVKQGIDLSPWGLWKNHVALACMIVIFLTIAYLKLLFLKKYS
Protocol: as §2

UGT1A1 = target: T3, UGT1A1 (Homo sapiens, UniProt P22309); assay: Glucuronidation kinetics by human expressed UGT1A1; type: in vitro ADME
T3 construct: purchased BD Biosciences (Woburn, MA, USA)
T3 sequence (P22309 26-533): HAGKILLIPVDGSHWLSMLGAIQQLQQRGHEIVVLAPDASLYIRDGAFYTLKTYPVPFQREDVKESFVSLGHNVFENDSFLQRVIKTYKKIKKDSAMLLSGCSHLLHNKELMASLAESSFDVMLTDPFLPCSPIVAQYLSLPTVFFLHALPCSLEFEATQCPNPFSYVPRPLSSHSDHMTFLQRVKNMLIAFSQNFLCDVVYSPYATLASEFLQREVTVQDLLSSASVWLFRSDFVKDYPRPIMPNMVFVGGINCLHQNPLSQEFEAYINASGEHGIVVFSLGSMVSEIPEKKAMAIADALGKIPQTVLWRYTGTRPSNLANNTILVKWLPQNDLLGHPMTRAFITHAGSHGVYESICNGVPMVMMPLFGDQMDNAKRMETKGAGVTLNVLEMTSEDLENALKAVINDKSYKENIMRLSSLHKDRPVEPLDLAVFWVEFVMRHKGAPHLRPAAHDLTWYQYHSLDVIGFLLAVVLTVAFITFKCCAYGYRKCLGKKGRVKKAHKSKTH
Protocol: as §1

UGT1A9 = target: T4, UGT1A9 (Homo sapiens, UniProt O60656); assay: Glucuronidation by human expressed UGT1A9 (screening and kinetics); type: in vitro ADME; conditions: for Kinetic profile of glucuronide formation: Eadie—Hofstee plots; for microsomal CLint: human, expressed (recombinant) human UGT1A9, pH 7.4, Vmax/Km; for Vmax: substrate diosmetin (Dio-3′-G) or chrysoeriol (Chr-7-G)
T4 construct: purchased BD Biosciences (Woburn, MA, USA)
T4 sequence (O60656 26-530): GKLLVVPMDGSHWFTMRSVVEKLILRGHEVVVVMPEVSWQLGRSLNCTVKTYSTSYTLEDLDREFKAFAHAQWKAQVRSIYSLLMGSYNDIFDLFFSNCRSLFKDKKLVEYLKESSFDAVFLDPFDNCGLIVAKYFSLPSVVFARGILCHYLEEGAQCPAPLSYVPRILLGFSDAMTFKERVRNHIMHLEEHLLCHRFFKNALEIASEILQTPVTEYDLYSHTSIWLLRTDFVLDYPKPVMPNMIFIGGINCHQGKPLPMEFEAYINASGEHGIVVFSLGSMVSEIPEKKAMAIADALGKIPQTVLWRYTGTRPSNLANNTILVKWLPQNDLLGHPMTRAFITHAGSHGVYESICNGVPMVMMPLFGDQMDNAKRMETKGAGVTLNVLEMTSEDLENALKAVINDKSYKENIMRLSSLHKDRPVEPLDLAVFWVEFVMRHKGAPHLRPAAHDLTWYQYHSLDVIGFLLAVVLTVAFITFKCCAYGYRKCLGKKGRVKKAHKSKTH
Protocol: as §1, with “Vmax1/Km1. The method of this study as described in detail previously. […] The incubation conditions were as follows: protein concentration: 0.0053 mg/mL; temperature of water: 37°C; shaker speed: 50 rpm; reaction time: 30 min. After incubation, all samples were pretreated as described above and analyzed by UHPLC—MS/MS.” for “Vmax1/Km1.”

[3] = 5 μM Ko143, 2.5 μM diosmetin or chrysoeriol
[4] = 10 μM Ko143, 2.5 μM diosmetin or chrysoeriol

Compound | microsomal CLint [1] [µL/min/mg] | Kinetic profile of glucuronide formation [2] | Km [2] [nM] | Vmax [2] [nmol/mg/min] | Kinetic profile of glucuronide formation (UGT1A6; Eadie—Hofstee plots) | microsomal CLint (UGT1A6; human, expressed (recombinant) human UGT1A6, pH 7.4, Vmax/Km) [µL/min/mg] | Vmax (UGT1A6; substrate diosmetin) [nmol/mg/min] | substrate concentration at which the excretion rate reached a peak (HeLa—UGT1A9 cells) [µM] | increase of total intracellular amount of glucuronide compared with the control (BCRP; [3]) [fold] | increase of total intracellular amount of glucuronide compared with the control (BCRP; [4]) [fold] | Kinetic profile of glucuronide formation (UGT1A1; Eadie—Hofstee plots) | microsomal CLint (UGT1A1; human, expressed (recombinant) human UGT1A1, pH 7.4, Vmax/Km) [µL/min/mg] | Vmax (UGT1A1; substrate chrysoeriol) [nmol/mg/min] | substrate concentration at which fmet reached a peak (HeLa—UGT1A9 cells; chrysoeriol 1.25-40 μM) [µM] | Kinetic profile of glucuronide formation (UGT1A9) | microsomal CLint (UGT1A9) [µL/min/mg] | Vmax (UGT1A9) [nmol/mg/min]
COc1ccc(-c2cc(=O)c3c(O)cc(O[C@@H]4O[C@H](C(=O)O)[C@@H](O)[C@H](O)[C@H]4O)cc3o2)cc1O [Dio-7-G, Diosmetin-7-O-glucuronide] | 130 | substrate inhibition profiles | 4660 ± 720 | 0.61 ± 0.05 | substrate inhibition kinetic characteristics | 300 | 0.92 ± 0.06 | 10 | 1.1 | 1.5 |  |  |  |  |  |  | 
COc1cc(-c2cc(=O)c3c(O)cc(O)cc3o2)ccc1O[C@@H]1O[C@H](C(=O)O)[C@@H](O)[C@H](O)[C@H]1O [Chr-4′-G, chrysoeriol-4′-O-glucuronide] | 1270 | substrate inhibition profiles | 150 ± 30 | 0.20 ± 0.01 |  |  |  | 2.5 | 1.3 | 1.8 | substrate inhibition kinetic characteristics | 2260 | 0.63 ± 0.06 | 2.5 |  |  | 
COc1cc(-c2cc(=O)c3c(O)cc(O[C@@H]4O[C@H](C(=O)O)[C@@H](O)[C@H](O)[C@H]4O)cc3o2)ccc1O [Chr-7-G, chrysoeriol-7-O-glucuronide] | 40 | classic Michaelis—Menten kinetics | 3830 ± 550 | 0.15 ± 0.01 |  |  |  | 2.5 | 1.3 | 1.7 |  |  |  |  | classic Michaelis-Menten kinetic characteristics | 480 | 0.12 ± 0.01
COc1ccc(-c2cc(=O)c3c(O)cc(O)cc3o2)cc1O[C@@H]1O[C@H](C(=O)O)[C@@H](O)[C@H](O)[C@H]1O [Dio-3′-G, diosmetin-3′-O-glucuronide] | 6250 | classic Michaelis—Menten kinetics | 190 ± 20 | 1.16 ± 0.03 |  |  |  | 2.5 | 1.3 | 1.8 |  |  |  |  | classic Michaelis-Menten kinetic characteristics | 9520 | 4.27 ± 0.13
